This is an account of results in patent publication US9486544B2, “Manganese chelates and their use as contrast agents in magnetic resonance imaging (MRI)” (GE Healthcare AS, priority 2009, dated 2016).

Format in all cases: physicochemical
A short description of series [1]: Relaxivity analysis in water. As to conditions: degassed Millipore water, 0.05 to 1 mM complex. The procedure: (§1) The relaxivity measurements were performed with a range of 0.05 to 1 mM complex solutions on a Bruker Minispec PC 120b-NA 770, at 20 MHz or a Bruker Minispec Mq 60m at 60 MHz and 37° C. The solutions were obtained by dissolving the appropriate amount of chelate in degassed Millipore water or human serum.

Series [2] in a line: Water exchange measurements (variable-temperature 17O NMR). As to conditions: TRIS 0.05 M pH 7.4, 6 to 15 mM complex. The procedure: Water Exchange Measurements
The water exchange measurements were performed with 6 to 15 mM complex solutions. The solutions were obtained by dissolving the appropriate amount of complex in 0.6 mL of buffer solution (TRIS, 0.05 M, pH 7.4 in degassed Millipore water at ca. 3 atom % ^17O-enrichment); Variable-temperature Fourier transform ^17O NMR spectra were recorded at a frequency of 40.7 MHz on a Varian Unity 300 MHz spectrometer. The temperatures were measured using methanol and ethylene glycol standards. The temperature dependence of the ^17O line broadening for each system was measured over a temperature range from 273.7 to 356.1 K. Each temperature was calibrated using a methanol or ethylene glycol standard.

Series [3] in a line: Relaxivity analysis in human serum. As to conditions: 0.05 to 1 mM complex. The protocol: as §1
A short description of series [4]: Kinetic stability: exchange reaction with Zn2+ in acetate buffer, monitored by relaxivity. As to conditions: acetate buffer with Zn2+ challenge, acetate buffer 10 mM, 25° C., chelate approx. 0.5 mM, read-out: Dissociation Half life t1/2. The procedure: The kinetic stability of manganous chelates was characterized by the rates of exchange reaction with Zn^2+, in acetate buffer (10 mM) set to various pH. The increase of free manganous ions was monitored using a Bruker Minispec PC 120b-NA 770, at 20 MHz and 25° C. The total ionic strength was adjusted to 0.5M with KCl. The chelate concentration was approximately 0.5 mM for all measurements.
The change in concentration of chelated manganese, upon challenge with zinc ions, was monitored spectroscopically. When zinc displaces a manganous ion a net increase in relaxivity was observed as the free manganous ion has a relaxivity of ˜10 mM^−1s^−1, whereas the studied manganese chelates have a lower relaxivity.
The pseudo first-order rate constants (kobs) were calculated by fitting the relaxivity data to the following equation: […] in which At, A0, and Ae are the relaxivity values at time t, the start of the reaction, and at equilibrium, respectively. The dissociation half life was derived from kobs.

Where two headings read alike, the source gives them in different places.

Take `CN1CCN2CC(=O)[O][Mn][O]C(=O)CN(CC1)Cc1cc(NC(=O)c3cc(C(=O)Nc4cc5nc(c4)CN4CCN(C)CCN(CC(=O)[O][Mn][O]C(=O)C4)C5)cc(C(=O)Nc4cc5nc(c4)CN4CCN(C)CCN(CC(=O)[O][Mn][O]C(=O)C4)C5)c3)cc(n1)C2` [Example 2, manganese(II) complex of N1,N3,N5-tris[3,6,9,15-tetraaza-3,9-bis-(carbonylmethyl)-6-methyl-bicyclo[9.3.1]pentadeca-13-trienyl]benzene-1,3,5-tricarboxamide]: the “Relaxivity Water @ 20 MHz, 37° C.” value in series [1] was 3.8 mM⁻¹ s⁻¹. In series [2], this molecule had a Water residence time of 14 ns. The “Relaxivity Human Serum @ 60 MHz, 37° C.” value in series [3] stood at 10.5 mM⁻¹ s⁻¹.

As to `O=C(O)CN1CCN2CC(=O)[O][Mn][O]C(=O)CN(CC1)Cc1cccc(n1)C2` [Compound disclosed in US5334371, reference compound], in series [1], the “Relaxivity Water @ 20 MHz, 37° C.” value came out at 1.3 mM⁻¹ s⁻¹.

For the molecule `CN1CCN2CC(=O)[O][Mn][O]C(=O)CN(CC1)Cc1cccc(n1)C2` [Example 1, manganese(II) complex of 3,6,9,15-tetraaza-3,9-bis-(carboxymethyl)-6-methyl-bicyclo[9.3.1]pentadeca-1(14),11(15),12-triene], in series [1], the “Relaxivity Water @ 20 MHz, 37° C.” value worked out at 2.4 mM⁻¹ s⁻¹. The Water residence time in series [2] worked out at 16 ns. For the same molecule, the half-life at 0.5 mM in series [4] (pH 4.6, pH 4.6, [Zn] 10 mM) was 10 min; in series [4] (pH 5, pH 5.0, [Zn] 10 mM), 21 min; in series [4] (pH 5.2, pH 5.2, [Zn] 10 mM), 30 min; in series [4] (pH 5.2, pH 5.2, [Zn] 20 mM) it was 37 min; in series [4] (pH 5.4, pH 5.4, [Zn] 10 mM), 44 min; in series [4] (pH 5.6, pH 5.6, [Zn] 10 mM), 72 min. Further, the half-life at 0.5 mM in series [4] (pH 5.6, pH 5.6, [Zn] 20 mM) worked out at 77 min. Besides, the “Relaxivity Human Serum @ 60 MHz, 37° C.” value in series [3] is 4.6 mM⁻¹ s⁻¹.

Take `O=C1CN2CCNCCN(CC(=O)[O][Mn][O]1)Cc1cccc(n1)C2` [Compound disclosed in US5334371, reference compound]: the half-life at 0.5 mM in series [4] (pH 4.6, pH 4.6, [Zn] 10 mM) is 3 min; in series [4] (pH 5, pH 5.0, [Zn] 10 mM), 6 min; in series [4] (pH 5.2, pH 5.2, [Zn] 10 mM), 9 min; in series [4] (pH 5.2, pH 5.2, [Zn] 20 mM), 10 min; in series [4] (pH 5.4, pH 5.4, [Zn] 10 mM), 15 min; in series [4] (pH 5.6, pH 5.6, [Zn] 10 mM), 22 min. The half-life at 0.5 mM in series [4] (pH 5.6, pH 5.6, [Zn] 20 mM) was 23 min.

For the molecule `CN1CCN2CC(=O)[O][Mn][O]C(=O)CN(CC1)Cc1cc(NC(=O)c3ccccc3)cc(n1)C2` [Example 6, manganese complex of N,13-Benzamide-3,6,9,15-tetraaza-3,9-bis-(carboxymethyl)-6-methyl-bicyclo[9.3.1]pentadeca-1(14),11(15),12-triene], in series [3], the “Relaxivity Human Serum @ 60 MHz, 37° C.” value is 8.8 mM⁻¹ s⁻¹.
